Results taken from PubChem BioAssay AID328 (DTP/NCI, 2004).
Values joined by “and” are separate entries in the source; they are usually repeats but may differ in a detail not shown here. Equal entries are not always repeated. Toxic doses and inconclusive results are not listed. Non-standard residues stand in square brackets, D forms with d. Residues, ends and D or L forms follow the SMILES beside them. *: point of attachment. NMeY = CN[CH](Cc1ccc(O)cc1)C(=O)O; Bn = c1ccc(C*)cc1

Test system: BDF1 mice, P388 leukemia ip, median survival T/C
Experiment: NCI In Vivo Anticancer Drug Screen. Data for tumor model P388 Leukemia (intraperitoneal) in B6D2F1 (BDF1) mice
Settings: endpoint: median survival time, higher = longer survival
Outline: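 Transplantable tumour in mice; compound vs vehicle dosing; survival scored; ratio of treated to control reported.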

[1] = dose: 6.25 mg/kg/injection, schedule: Q01DX009 (ip), vehicle: saline
[2] = dose: 12.5 mg/kg/injection, schedule: Q01DX009 (ip), vehicle: saline
[3] = dose: 25.0 mg/kg/injection, schedule: Q01DX009 (ip), vehicle: saline
[4] = dose: 100.0 mg/kg/injection, schedule: Q04DX003 (ip), vehicle: saline with Tween-80
[5] = dose: 200.0 mg/kg/injection, schedule: Q04DX003 (ip), vehicle: saline with Tween-80
[6] = dose: 400.0 mg/kg/injection, schedule: Q04DX003 (ip), vehicle: saline with Tween-80
[7] = dose: 6.25 mg/kg/injection, schedule: Q04DX003 (ip), vehicle: saline sonified
[8] = dose: 12.5 mg/kg/injection, schedule: Q04DX003 (ip), vehicle: saline sonified
[9] = dose: 25.0 mg/kg/injection, schedule: Q01DX009 (ip), vehicle: saline with Tween-80
[10] = dose: 25.0 mg/kg/injection, schedule: Q04DX003 (ip), vehicle: saline sonified
[11] = dose: 12.5 mg/kg/injection, schedule: Q01DX001 (ip), vehicle: Klucel (hydroxypropylcellulose) (HPC)
[12] = dose: 50.0 mg/kg/injection, schedule: Q01DX001 (ip), vehicle: Klucel (hydroxypropylcellulose) (HPC)
[13] = dose: 100.0 mg/kg/injection, schedule: Q04DX003 (ip), vehicle: saline
[14] = dose: 200.0 mg/kg/injection, schedule: Q04DX003 (ip), vehicle: saline
[15] = dose: 12.5 mg/kg/injection, schedule: Q01DX009 (ip), vehicle: saline with Tween-80
[16] = dose: 50.0 mg/kg/injection, schedule: Q01DX009 (ip), vehicle: saline with Tween-80
[17] = dose: 100.0 mg/kg/injection, schedule: Q01DX009 (ip), vehicle: saline with Tween-80
[18] = dose: 200.0 mg/kg/injection, schedule: Q01DX009 (ip), vehicle: saline with Tween-80
[19] = dose: 400.0 mg/kg/injection, schedule: Q01DX009 (ip), vehicle: saline with Tween-80
[20] = dose: 6.25 mg/kg/injection, schedule: Q01DX009 (ip), vehicle: saline with Tween-80
[21] = dose: 100.0 mg/kg/injection, schedule: Q04DX003 (ip), vehicle: Klucel (hydroxypropylcellulose) (HPC)
[22] = dose: 200.0 mg/kg/injection, schedule: Q04DX003 (ip), vehicle: Klucel (hydroxypropylcellulose) (HPC)
[23] = dose: 400.0 mg/kg/injection, schedule: Q04DX003 (ip), vehicle: Klucel (hydroxypropylcellulose) (HPC)
[24] = dose: 100.0 mg/kg/injection, schedule: Q01DX009 (ip), vehicle: Klucel (hydroxypropylcellulose) (HPC)
[25] = dose: 200.0 mg/kg/injection, schedule: Q01DX009 (ip), vehicle: Klucel (hydroxypropylcellulose) (HPC)
[26] = dose: 400.0 mg/kg/injection, schedule: Q01DX009 (ip), vehicle: Klucel (hydroxypropylcellulose) (HPC)

With `C/C(=N/N(C)C)c1ccc([N+](=O)[O-])cc1` the T/C [1] was 87 % of control, the T/C [2] was 91 % of control and the T/C [3] was 100 % of control. The T/C (dose: 50.0 mg/kg/injection, schedule: Q01DX009 (ip), vehicle: Klucel (hydroxypropylcellulose) (HPC)) was 109 % of control.

In the case of `CCCCCCCC(=O)Nc1c(C)cccc1C`, the T/C [4] is reported as 100 % of control, the T/C [5] is reported as 100 % of control and the T/C [6] is reported as 95 % of control.

For `C=C1C(=O)O[C@@H]2[C@H]3O[C@]3(C)CCC=C(C)CC[C@@H]12`, the T/C (dose: 6.25 mg/kg/injection, schedule: Q01DX009 (ip), vehicle: alcohol) was 90 % of control, the T/C (dose: 12.5 mg/kg/injection, schedule: Q01DX009 (ip), vehicle: alcohol) was 122 % of control and the T/C (dose: 25.0 mg/kg/injection, schedule: Q01DX009 (ip), vehicle: alcohol) was 122 % of control. For the same molecule, the T/C (dose: 50.0 mg/kg/injection, schedule: Q01DX009 (ip), vehicle: alcohol) was 113 % of control.

For `Cc1cc(=O)c2c(C)cccc2[nH]1`, the T/C [7] was 104 % of control, the T/C [8] was 109 % of control and the T/C [9] was 113 % of control. For the same molecule, the T/C [10] was 100 % of control.

`CCOC(=O)Nc1cc2c(c(N)n1)N=C(CN(C)c1ccc(OC)cc1)CN2` was tested, and the T/C [11] was 175 % of control, the T/C (dose: 25.0 mg/kg/injection, schedule: Q01DX001 (ip), vehicle: Klucel (hydroxypropylcellulose) (HPC)) was 240 % of control and the T/C [12] was 277 % of control.

For `CNC(Cc1ccc(OCc2ccccc2)cc1)C(=O)NC(CC(C)C)C(=O)OC` (stereo not given) (H-[NMeY](Bn)-Leu-OMe; configuration not given here), the T/C [3] was 106 % of control, the T/C (dose: 50.0 mg/kg/injection, schedule: Q01DX009 (ip), vehicle: saline) was 99 % of control and the T/C (dose: 50.0 mg/kg/injection, schedule: Q04DX003 (ip), vehicle: saline) was 108 % of control. For the same molecule, the T/C (dose: 100.0 mg/kg/injection, schedule: Q01DX009 (ip), vehicle: saline) was 92 % of control, the T/C [13] was 111 % of control and the T/C (dose: 200.0 mg/kg/injection, schedule: Q01DX009 (ip), vehicle: saline) was 106 % of control. For the same molecule, the T/C [14] was 106 % of control.

With `O=C(O)C1CC2C=CC1C2` (stereo not given) the T/C [15] was 118 % of control, the T/C [9] was 113 % of control and the T/C [16] was 109 % of control. The T/C [17] was 110 % of control and 100 % of control, the T/C [18] was 90 % of control and the T/C [19] was 86 % of control.

For `CCOC(=O)NC1=C(N2CC2C)C(=O)C(NC(=O)OCC)=C(N2CC2C)C1=O` (stereo not given), the T/C (dose: 3.12 mg/kg/injection, schedule: Q01DX001 (ip), vehicle: Klucel (hydroxypropylcellulose) (HPC)) was 123 % of control and the T/C [11] was 113 % of control.

In the case of `S=C1SCN(CCc2ccccc2)CN1CCc1ccccc1`, the T/C [20] is reported as 111 % of control, the T/C [15] is reported as 102 % of control and the T/C [9] is reported as 104 % of control. The T/C [16] was 100 % of control.

`COc1ccc2nccc(C=O)c2c1` was tested, and the T/C [17] was 116 % of control, the T/C [18] was 114 % of control and the T/C [19] was 117 % of control.

`CCCC[N+](CC)(CC)CCCNC1=CC(=O)C(NCCC[N+](CC)(CC)CCCC)=CC1=O` was tested, and the T/C (dose: 0.39 mg/kg/injection, schedule: Q04DX002 (ip), vehicle: saline) was 105 % of control and the T/C (dose: 0.78 mg/kg/injection, schedule: Q04DX002 (ip), vehicle: saline) was 105 % of control.

In the case of `O=C1CN(Cc2ccccc2)CC(=O)N2CCCN12`, the T/C (dose: 50.0 mg/kg/injection, schedule: Q01DX005 (ip), vehicle: saline with Tween-80) is reported as 101 % of control, the T/C (dose: 100.0 mg/kg/injection, schedule: Q01DX005 (ip), vehicle: saline with Tween-80) is reported as 90 % of control and the T/C (dose: 200.0 mg/kg/injection, schedule: Q01DX005 (ip), vehicle: saline with Tween-80) is reported as 92 % of control.

For `[O-][Cl+3]([O-])([O-])O.[O-][n+]1c2ccccc2nc2ccccc21.[Zn+2]`, the T/C [16] was 123 % of control.

For `Clc1cc(CBr)c(Cl)c(Cl)c1CBr`, the T/C (dose: 6.25 mg/kg/injection, schedule: Q01DX009 (ip), vehicle: Klucel (hydroxypropylcellulose) (HPC)) was 109 % of control, the T/C [1] was 100 % of control and the T/C [7] was 95 % of control. For the same molecule, the T/C (dose: 12.5 mg/kg/injection, schedule: Q01DX009 (ip), vehicle: Klucel (hydroxypropylcellulose) (HPC)) was 109 % of control, the T/C [2] was 103 % of control and the T/C [8] was 100 % of control. For the same molecule, the T/C [3] was 110 % of control and the T/C [10] was 100 % of control.

With `CS(=O)(=O)CC(O)(c1ccccc1)c1cccnc1` (stereo not given) the T/C [16] was 98 % of control, the T/C [17] was 104 % of control and the T/C [18] was 98 % of control.

In the case of `N#CC(C#N)=c1ccc(=C(C#N)C#N)cc1`, the T/C [9] is reported as 108 % of control, the T/C (dose: 25.0 mg/kg/injection, schedule: Q04DX003 (ip), vehicle: saline with Tween-80) is reported as 88 % of control and the T/C [16] is reported as 108 % of control. The T/C (dose: 50.0 mg/kg/injection, schedule: Q04DX003 (ip), vehicle: saline with Tween-80) was 92 % of control and the T/C [4] was 111 % of control.

In the case of `CN1c2ccc(Cl)cc2C(=O)NC1c1ccc([N+](=O)[O-])s1` (stereo not given), the T/C [16] is reported as 98 % of control and 110 % of control, the T/C [17] is reported as 104 % of control and 113 % of control and the T/C [18] is reported as 112 % of control.

With `O=C1NN=C(c2ccc(Cl)cc2)CS1` the T/C [16] was 103 % of control and the T/C [17] was 103 % of control.

`NC1=C(c2ccccc2)C(=O)c2ccccc21` was tested, and the T/C [21] was 104 % of control, the T/C [22] was 109 % of control and the T/C [23] was 109 % of control.

With `Cc1c(C/C(=N/O)C(=O)O)[nH]c(=S)[nH]c1=O` the T/C [4] was 100 % of control, the T/C [5] was 87 % of control and the T/C [6] was 100 % of control.

For `O=C1CCN2C=CC=CC2=N1`, the T/C [13] was 104 % of control, the T/C [14] was 100 % of control and the T/C (dose: 400.0 mg/kg/injection, schedule: Q04DX003 (ip), vehicle: saline) was 95 % of control.

`COc1cccc2c1C(=O)c1c(OC)cccc1C2=O` was tested, and the T/C (dose: 25.0 mg/kg/injection, schedule: Q04DX003 (ip), vehicle: Klucel (hydroxypropylcellulose) (HPC)) was 98 % of control, the T/C (dose: 50.0 mg/kg/injection, schedule: Q04DX003 (ip), vehicle: Klucel (hydroxypropylcellulose) (HPC)) was 97 % of control and the T/C [21] was 103 % of control. The T/C [22] was 98 % of control and the T/C [23] was 97 % of control.

For `OCC1C(CO)C2(Cl)C(Cl)=C(Cl)C1(Cl)C2(Cl)Cl` (stereo not given), the T/C [24] was 100 % of control, the T/C [21] was 100 % of control and the T/C [25] was 118 % of control. For the same molecule, the T/C [22] was 95 % of control, the T/C [26] was 100 % of control and the T/C [23] was 109 % of control.

`c1ccc2c(c1)NC1(CCCCC1)S2` was tested, and the T/C [24] was 104 % of control, the T/C [21] was 95 % of control and the T/C [25] was 104 % of control. The T/C [22] was 105 % of control, the T/C [26] was 109 % of control and the T/C [23] was 105 % of control.

For `O=C(Cl)C1C2CC1C(Cl)C2Cl` (stereo not given), the T/C [16] was 103 % of control, the T/C [17] was 108 % of control and the T/C [18] was 107 % of control.

For `C#CCOc1ccccc1/C(Cl)=N/Nc1ccc([N+](=O)[O-])cc1[N+](=O)[O-]`, the T/C (dose: 1.56 mg/kg/injection, schedule: Q01DX009 (ip), vehicle: saline with Tween-80) was 106 % of control, the T/C (dose: 3.12 mg/kg/injection, schedule: Q01DX009 (ip), vehicle: saline with Tween-80) was 97 % of control and the T/C [20] was 100 % of control.

`COc1ccc(CCNC(=S)NCCc2ccc(OC)c(OC)c2)cc1OC` was tested, and the T/C [12] was 100 % of control, the T/C (dose: 100.0 mg/kg/injection, schedule: Q01DX001 (ip), vehicle: Klucel (hydroxypropylcellulose) (HPC)) was 100 % of control and the T/C (dose: 200.0 mg/kg/injection, schedule: Q01DX001 (ip), vehicle: Klucel (hydroxypropylcellulose) (HPC)) was 90 % of control.

For `O=[N+]([O-])c1ccc(-c2nc(Cl)c3c(n2)CCCC3)o1`, the T/C [16] was 95 % of control, the T/C [17] was 98 % of control and the T/C [18] was 97 % of control.
